Laboratory results taken from patent US20030008807A1, “Novel signaling pathway for the production of inflammatory pain and neuropathy” (The Regents of the University of California, priority 2001, published 2003).
Entries after “also recorded” stand apart in the source; their conditions may differ.

Legend:
[1] = tested on: mechanical nociceptive threshold; assay: PGE2-induced hyperalgesia, Randall-Selitto paw-withdrawal test (Example 1); type: in vivo, rat; conditions: intradermal, inhibitor 1 μg plus PGE2 100 ng, male rats
Experimental: (§1) The nociceptive flexion reflex (Randall-Selitto paw-withdrawal test) was quantified with a Basile Analge-symeter (Stoelting, Chicago, Ill.), which applies a linearly increasing mechanical force to the dorsum of the rat's hindpaw. The mechanical nociceptive threshold was defined as the force in grams at which the rat withdrew its paw. On the day of the test, animals were brought to the laboratory and allowed to remain in the cage for 10-15 min. They were allowed to crawl into individual cylindrical Perspex blocks and were lightly restrained there by closing both ends of the cylinder. […] Three readings were taken at 5 min intervals, and their mean was considered the baseline threshold. After each drug administration, mechanical paw-withdrawal thresholds were determined again as the mean of three readings taken 20, 25, and 30 min after injection. The result was expressed as the percentage decrease in nociceptive threshold [(paw-withdrawal threshold after the drug-basal paw withdrawal threshold)/basal withdrawal threshold×100].
(§2) Stock solutions (1 μg/μl) of BIM (in 10% dimethylsulfoxide) and εV1-2 and WI PTI DE (in 0.9% saline) were stored at […]. […] Paw-withdrawal thresholds were measured again 10, 15, and 20 min after injecting the test agent. […] The effect of each dose a test agent was calculated as the percentage change from baseline.

[2] = tested on: mechanical nociceptive threshold; assay: ψεRACK (PKCε activator)-induced hyperalgesia, Randall-Selitto paw-withdrawal test; type: in vivo, rat; conditions: intradermal, inhibitor 1 μg plus ψεRACK 1 μg, male rats
Experimental: as §1, §2

[3] = tested on: Taxol-induced hyperalgesia; assay: Taxol-induced painful peripheral neuropathy, Randall-Selitto paw-withdrawal test; type: in vivo, rat; conditions: male and female rats, administered at site of nociceptive testing on paw
Excerpt: (§3) The role of Ras-MEK-ERK 1/2 cascade in painful peripheral neuropathy has been evaluated in three rodent models of common clinical conditions in which patients experience painful peripheral neuropathy. The three models are as follows: 1) Taxol® (a major cancer chemotherapy agent)-induced painful peripheral neuropathy (Dina, O. A., et al., (2001) Role of protein kinase C-epsilon and protein kinase A in a model of paclitaxel-induced painful peripheral neuropathy in the rat. Neuroscience 108:507-515); 2) vincristine (another cancer chemotherapy agent)-induced painful peripheral neuropathy (Aley, K. O., et al., (1996) Vincristine hyperalgesia in the rat: a possible modelfor painful vincristine neuropathy in humans. Neuroscience 73:259-265; Tanner, K. D., et al., (1998) Nociceptor hyper-responsiveness during vincristine-induced painful peripheral neuropathy in the rat. J. Neuroscience 18:6480-6491; Tanner, K. D., et al., (1998) Microtubule disorientation and axonal swelling in unmyelinated sensory axons during vincristine-induced painful neuropathy in rat. J. Comp. Neurol., 395:481-492; and, Tanner, K. D., et al., (2002) Altered temporal patterning of afferent activity in a rat model of vincristine-induced peripheral neuropathy (Submitted -Neuroscience).); and, 3) alcohol-induced painful peripheral neuropathy (Dina, O. A., et al., (2000) Key role for the epsilon isoform of protein kinase C in painful alcoholic neuropathy in the rat. J. Neurosci. 20:8614-8619). In all three models, inhibition of MEK by a MEK inhibitor, PD98509, produced either a moderate (Taxol and vincristine) or profound (alcohol) reversal of the painful peripheral neuropathy. In the third model, alcohol-induced painful peripheral neuropathy, a second inhibitor of the Ras-MEK-ERK 1/2 cascade, which was MEK inhibitor U0126, was also employed.
The pain threshold in normal male and female rats was approximately 110 grams, using the Randall-Selitto paw-withdrawal test (plotted as absolute change in nociceptive threshold). Following administration of Taxol, the threshold fell to approximately 70 grams.

[4] = tested on: vincristine-induced hyperalgesia; assay: Vincristine-induced painful peripheral neuropathy, Randall-Selitto paw-withdrawal test; type: in vivo, rat; conditions: male and female rats, administered at site of nociceptive testing on paw
Excerpt: as §3
The pain threshold in normal male and female rats was approximately 110 grams, using the Randall-Selitto paw-withdrawal test (plotted as absolute change in nociceptive threshold). Following administration of vincristine, the threshold fell to approximately 65 grams.

[5] = tested on: alcohol-induced hyperalgesia; assay: Alcohol-induced painful peripheral neuropathy, Randall-Selitto paw-withdrawal test; type: in vivo, rat
Excerpt: as §3
The pain threshold in normal rats was approximately 110 grams, using the Randall-Selitto paw-withdrawal threshold test (plotted as percentage change in nociceptive threshold). Following chronic consumption of a diet in which alcohol replaced calories, but not other nutrients, in the normal diet, the threshold fell to approximately 70 grams. […] See FIG. 13A, which illustrates results from female rats and FIG. 13B, which illustrates results from male rats.

[6] = tested on: mechanical nociceptive threshold; assay: Epinephrine-induced mechanical hyperalgesia, Randall-Selitto paw-withdrawal test (Example 1)
Excerpt: The nociceptive flexion reflex (Randall-Selitto paw-withdrawal test) was quantified with a Basile Analge-symeter (Stoelting, Chicago, Ill.), which applies a linearly increasing mechanical force to the dorsum of the rat's hindpaw. The mechanical nociceptive threshold was defined as the force in grams at which the rat withdrew its paw. […] They were allowed to crawl into individual cylindrical Perspex blocks and were lightly restrained there by closing both ends of the cylinder. […] The rats were allowed to acclimatize to the restrainer for 5-10 min, after which the hindpaws were exposed to the test stimulus. Three readings were taken at 5 min intervals, and their mean was considered the baseline threshold. After each drug administration, mechanical paw-withdrawal thresholds were determined again as the mean of three readings taken 20, 25, and 30 min after injection.
Inhibitors were diluted with distilled water before intra-dermal injections into the paw using a 10 μl microsyringe (Hamilton, Reno, Nev.). Injections of peptides (1 μg/2.5 μl) were always preceded by injection of distilled water (2.5 μl) to produce hypo-osmotic shock. […] Paw-withdrawal thresholds were measured again 10, 15, and 20 min after injecting the test agent. The mean of the paw-withdrawal thresholds obtained at these three times was then taken as the mechanical nociceptive threshold at the dose of the test agent used. The effect of each dose a test agent was calculated as the percentage change from baseline.

[7] = tested on: mechanical nociceptive threshold; assay: Epinephrine-induced hyperalgesia in gonad-intact and gonadectomized male and female rats (Example 2); conditions: intact female rats; inhibitor 1 μg, epinephrine 100 ng intradermal
Experimental: The nociceptive flexion reflex was quantified using the Randall-Selitto paw pressure device (Analgesymeter, Stoetling, Chicago, Ill., USA), which applies a linearly increasing mechanical force to the dorsum of the rat's hind paw. The mechanical nociceptive threshold was defined as the force in grams at which the rat withdrew its paw. […] Baseline paw-withdrawal threshold was defined as the mean of six readings before test agents were injected. […] Each group of rats was treated with only one agonist and/or antagonist injected peripherally by the intradermal route. […] All behavioural testing was done between 10.00 and 16.00 h. […] The protein kinase inhibitor was separated from the distilled water by drawing up a small air bubble (<1 μL) into the syringe after drawing up the protein kinase inhibitor but before drawing up the distilled water.
A stock solution of PGE2 (4 mg/mL) was made by dissolving it in 10% ethanol in normal saline; further dilution to 100 ng was made by addition of saline. Final concentration of ethanol was <10%. […] Stock solutions (1 μg/μL) of inhibitors were stored at −20° C. […] Inhibitors were injected at a concentration of 1 μg/2.5 μL.

ERK1/2 = assay: Epinephrine-stimulated ERK1/2 phosphorylation in cultured rat DRG neurons (Western analysis); type: cell-based
Experimental: Trypsin was inactivated by adding 100 μg/ml soybean trypsin inhibitor and 2.5 mg/ml MgSO4. The cells were centrifuged at 300×g for 5 min and resuspended culture media containing minimal essential medium (MEM) supplemented with 10% heat-inactivated fetal calf serum, 1×MEM vitamins, and 1000 U/ml each of penicillin and streptomycin. The culture was enriched for neurons by preplating on 100 mm culture dishes pretreated with 0.1 mg/ml poly-DL-ornithine in 15 mM sodium borate buffer. After culture for 15-20 hr, the loosely attached neuronal cells were collected and plated for 3 hr on six-well plates coated with 0.1 mg/ml poly-DL-ornithine and 1 mg/ml laminin.
After drug treatment, cells from neuron-enriched DRG cultures were collected and centrifuged at 300×g for 5 min at 4° C. […] Blots were incubated with anti-phospho-p42/44 MAP kinase antibody (diluted 1:500 in blocking buffer) overnight at 4° C. Blots were rinsed three times in PBS-T and incubated in blocking buffer containing HRP-conjugated goat anti-rabbit IgG (diluted 1:1000; Boehringer Mannheim, Indianapolis, Ind.) for 1 hr at 27° C. Immunoreactive bands were visualized by enhanced chemiluminescence (Amersham Pharmacia Biotech, Piscataway, N.J.). The membranes were then stripped of antibodies by incubation in 200 mM NaOH for 20 min at 27° C. […] After three washes in PBS-T, blots were incubated with HRP-conjugated goat anti-rabbit IgG (diluted 1:1000; Boehringer Mannheim) for 1 hr at 27° C., and immunoreactive bands were visualized by enhanced chemiluminescence and autoradiography. […] Data were normalized by dividing values obtained for phospho-ERK1 and phospho-ERK2 immunoreactivity by the value obtained for total ERK1 immunoreactivity for each sample.

[8] = male and female rats, administered at site of nociceptive testing on paw

## COc1cccc(-c2cc(=O)c3ccccc3o2)c1N [PD98059]
[1]
  effect on hyperalgesia induced by PGE2: had no effect
[2]
  effect on hyperalgesia induced by ψεRACK: had no effect
[3]
  effect on Taxol-induced hyperalgesia: two-thirds reduction; also recorded: significantly reversed
[3]; listed as PD98509
  effect on Taxol-induced hyperalgesia: moderate
[4]
  effect on vincristine-induced hyperalgesia: more than two-thirds reduction; also recorded: reversed
[4]; listed as PD98509
  effect on vincristine-induced hyperalgesia: moderate
[4]; listed as PD980598
  effect on vincristine-induced hyperalgesia: significantly reversed
[5]; female rats (FIG. 13A)
  effect on alcohol-induced hyperalgesia: almost completely reversed
[5]; [8]
  effect on alcohol-induced hyperalgesia: almost complete reversal
[5]; male and female rats, administered at site of nociceptive testing on paw, listed as PD98509
  effect on alcohol-induced hyperalgesia: profound
[5]; male rats (FIG. 13B)
  effect on alcohol-induced hyperalgesia: almost completely reversed
[6]; intradermal, inhibitor 1 μg plus epinephrine 100 ng, male rats
  effect on epinephrine-induced mechanical hyperalgesia: inhibited
[7]
  effect on epinephrine-induced hyperalgesia: attenuated

## N#CC(=C(/N)Sc1ccccc1N)/C(C#N)=C(\N)Sc1ccccc1N [U0126]
ERK1/2
  effect on epinephrine-induced ERK phosphorylation: inhibited
[1]
  effect on hyperalgesia induced by PGE2: had no effect
[2]
  effect on hyperalgesia induced by ψεRACK: had no effect
[5]; female rats (FIG. 13A)
  effect on alcohol-induced hyperalgesia: almost completely reversed
[5]; [8]
  effect on alcohol-induced hyperalgesia: almost complete reversal
[5]; male rats (FIG. 13B)
  effect on alcohol-induced hyperalgesia: almost completely reversed
[6]; rat, in vivo
  effect on epinephrine-induced mechanical hyperalgesia: inhibited
[7]
  effect on epinephrine-induced hyperalgesia: attenuated
